According to US20100092429A1, “Composition” (Danisco A/S, priority 2006, published 2010):
Like-named read-outs stand apart in the source and are kept apart here.

Legend:
[1] = system: Bifidobacterium lactis BI-04; type: cell-based; details: 1 w/v-% carbohydrate, 37° C.
[2] = system: Lactobacilli and S. thermophilus; assay: Growth on single carbohydrates, summary for Lactobacilli and S. thermophilus; type: cell-based; details: summary in words of Tables 7 and 8

OC[C@H]1O[C@H](O)[C@H](O)[C@@H](O)[C@@H]1O [Glucose, Alpha-D-Glucose]
absorbance (OD 600 nm) ([1]; Table 3 test, time 0 h): 0.345
absorbance (OD 600 nm) ([1]; Table 3 test, time 0.5 h): 0.3508
absorbance (OD 600 nm) ([1]; Table 3 test, time 1 h): 0.3557
absorbance (OD 600 nm) ([1]; Table 3 test, time 1.5 h): 0.3612
absorbance (OD 600 nm) ([1]; Table 3 test, time 2 h): 0.366
absorbance (OD 600 nm) ([1]; Table 3 test, time 2.5 h): 0.3717
absorbance (OD 600 nm) ([1]; Table 3 test, time 3 h): 0.3794
absorbance (OD 600 nm) ([1]; Table 3 test, time 3.5 h): 0.3884
absorbance (OD 600 nm) ([1]; Table 3 test, time 4 h): 0.4001
absorbance (OD 600 nm) ([1]; Table 3 test, time 4.5 h): 0.4149
absorbance (OD 600 nm) ([1]; Table 3 test, time 5 h): 0.4363
absorbance (OD 600 nm) ([1]; Table 3 test, time 5.5 h): 0.4576
absorbance (OD 600 nm) ([1]; Table 3 test, time 6 h): 0.4843
absorbance (OD 600 nm) ([1]; Table 3 test, time 6.5 h): 0.5156
absorbance (OD 600 nm) ([1]; Table 3 test, time 7 h): 0.549
absorbance (OD 600 nm) ([1]; Table 3 test, time 7.5 h): 0.5855
absorbance (OD 600 nm) ([1]; Table 3 test, time 8 h): 0.6269
absorbance (OD 600 nm) ([1]; Table 3 test, time 8.5 h): 0.6688
absorbance (OD 600 nm) ([1]; Table 3 test, time 9 h): 0.7126
absorbance (OD 600 nm) ([1]; Table 3 test, time 9.5 h): 0.7528
absorbance (OD 600 nm) ([1]; Table 3 test, time 10 h): 0.7957
absorbance (OD 600 nm) ([1]; Table 3 test, time 10.5 h): 0.8301
absorbance (OD 600 nm) ([1]; Table 3 test, time 11 h): 0.8645
absorbance (OD 600 nm) ([1]; Table 3 test, time 11.5 h): 0.897
absorbance (OD 600 nm) ([1]; Table 3 test, time 12 h): 0.927
absorbance (OD 600 nm) ([1]; Table 3 test, time 12.5 h): 0.9517
absorbance (OD 600 nm) ([1]; Table 3 test, time 13 h): 0.9725
absorbance (OD 600 nm) ([1]; Table 3 test, time 13.5 h): 0.9899
absorbance (OD 600 nm) ([1]; Table 3 test, time 14 h): 1.0031
absorbance (OD 600 nm) ([1]; Table 3 test, time 14.5 h): 1.0267
absorbance (OD 600 nm) ([1]; Table 3 test, time 15 h): 1.0406
absorbance (OD 600 nm) ([1]; Table 3 test, time 15.5 h): 1.05
absorbance (OD 600 nm) ([1]; Table 3 test, time 16 h): 1.063
absorbance (OD 600 nm) ([1]; Table 3 test, time 16.5 h): 1.0769
absorbance (OD 600 nm) ([1]; Table 3 test, time 17 h): 1.0841
absorbance (OD 600 nm) ([1]; Table 3 test, time 17.5 h): 1.1062
absorbance (OD 600 nm) ([1]; Table 3 test, time 18 h): 1.1201
absorbance (OD 600 nm) ([1]; Table 3 test, time 18.5 h): 1.1494
absorbance (OD 600 nm) ([1]; Table 3 test, time 19 h): 1.1729
absorbance (OD 600 nm) ([1]; Table 3 test, time 19.5 h): 1.1942
absorbance (OD 600 nm) ([1]; Table 3 test, time 20 h): 1.2233
absorbance (OD 600 nm) ([1]; Table 3 test, time 20.5 h): 1.2352
absorbance (OD 600 nm) ([1]; Table 3 test, time 21 h): 1.27
absorbance (OD 600 nm) ([1]; Table 3 test, time 21.5 h): 1.2882
absorbance (OD 600 nm) ([1]; Table 3 test, time 22 h): 1.2935
absorbance (OD 600 nm) ([1]; Table 3 test, time 22.5 h): 1.312
absorbance (OD 600 nm) ([1]; Table 3 test, time 23 h): 1.3311
absorbance (OD 600 nm) ([1]; Table 3 test, time 23.5 h): 1.3389
absorbance (OD 600 nm) ([1]; Table 3 test, time 24 h): 1.3477
absorbance (OD 600 nm) ([1]; Table 4 further test, time 0 h): 0.358
absorbance (OD 600 nm) ([1]; Table 4 further test, time 0.5 h): 0.3615
absorbance (OD 600 nm) ([1]; Table 4 further test, time 1 h): 0.3671
absorbance (OD 600 nm) ([1]; Table 4 further test, time 1.5 h): 0.3772
absorbance (OD 600 nm) ([1]; Table 4 further test, time 2 h): 0.3899
absorbance (OD 600 nm) ([1]; Table 4 further test, time 2.5 h): 0.407
absorbance (OD 600 nm) ([1]; Table 4 further test, time 3 h): 0.4301
absorbance (OD 600 nm) ([1]; Table 4 further test, time 3.5 h): 0.4552
absorbance (OD 600 nm) ([1]; Table 4 further test, time 4 h): 0.4845
absorbance (OD 600 nm) ([1]; Table 4 further test, time 4.5 h): 0.5215
absorbance (OD 600 nm) ([1]; Table 4 further test, time 5 h): 0.5712
absorbance (OD 600 nm) ([1]; Table 4 further test, time 5.5 h): 0.6208
absorbance (OD 600 nm) ([1]; Table 4 further test, time 6 h): 0.6769
absorbance (OD 600 nm) ([1]; Table 4 further test, time 6.5 h): 0.7519
absorbance (OD 600 nm) ([1]; Table 4 further test, time 7 h): 0.824
absorbance (OD 600 nm) ([1]; Table 4 further test, time 7.5 h): 0.8944
absorbance (OD 600 nm) ([1]; Table 4 further test, time 8 h): 0.9606
absorbance (OD 600 nm) ([1]; Table 4 further test, time 8.5 h): 1.0277
absorbance (OD 600 nm) ([1]; Table 4 further test, time 9 h): 1.0871
absorbance (OD 600 nm) ([1]; Table 4 further test, time 9.5 h): 1.1209
absorbance (OD 600 nm) ([1]; Table 4 further test, time 10 h): 1.1556
absorbance (OD 600 nm) ([1]; Table 4 further test, time 10.5 h): 1.189
absorbance (OD 600 nm) ([1]; Table 4 further test, time 11 h): 1.2217
absorbance (OD 600 nm) ([1]; Table 4 further test, time 11.5 h): 1.2528
absorbance (OD 600 nm) ([1]; Table 4 further test, time 12 h): 1.2826
absorbance (OD 600 nm) ([1]; Table 4 further test, time 12.5 h): 1.3101
absorbance (OD 600 nm) ([1]; Table 4 further test, time 13 h): 1.3368
absorbance (OD 600 nm) ([1]; Table 4 further test, time 13.5 h): 1.3586
absorbance (OD 600 nm) ([1]; Table 4 further test, time 14 h): 1.3745
absorbance (OD 600 nm) ([1]; Table 4 further test, time 14.5 h): 1.388
absorbance (OD 600 nm) ([1]; Table 4 further test, time 15 h): 1.4068
absorbance (OD 600 nm) ([1]; Table 4 further test, time 15.5 h): 1.4166
absorbance (OD 600 nm) ([1]; Table 4 further test, time 16 h): 1.43
absorbance (OD 600 nm) ([1]; Table 4 further test, time 16.5 h): 1.4441
absorbance (OD 600 nm) ([1]; Table 4 further test, time 17 h): 1.4486
absorbance (OD 600 nm) ([1]; Table 4 further test, time 17.5 h): 1.4526
absorbance (OD 600 nm) ([1]; Table 4 further test, time 18 h): 1.4654
absorbance (OD 600 nm) ([1]; Table 4 further test, time 18.5 h): 1.4724
absorbance (OD 600 nm) ([1]; Table 4 further test, time 19 h): 1.472
absorbance (OD 600 nm) ([1]; Table 4 further test, time 19.5 h): 1.4796
absorbance (OD 600 nm) ([1]; Table 4 further test, time 20 h): 1.4864
absorbance (OD 600 nm) ([1]; Table 4 further test, time 20.5 h): 1.491
absorbance (OD 600 nm) ([1]; Table 4 further test, time 21 h): 1.4946
absorbance (OD 600 nm) ([1]; Table 4 further test, time 21.5 h): 1.4988
absorbance (OD 600 nm) ([1]; Table 4 further test, time 22 h): 1.5015
absorbance (OD 600 nm) ([1]; Table 4 further test, time 22.5 h): 1.5046
absorbance (OD 600 nm) ([1]; Table 4 further test, time 23 h): 1.5061
absorbance (OD 600 nm) ([1]; Table 4 further test, time 23.5 h): 1.5092
absorbance (OD 600 nm) ([1]; Table 4 further test, time 24 h): 1.5092
fermentation of the carbohydrate by Lactobacilli and S. thermophilus [2]: all these bacteria fermented with glucose
